ChEMBL document CHEMBL3045101, “Hypoglycemic effect of astaxanthin from shrimp waste in alloxan-induced diabetic mice” (2012)
Activity calls are given as the source filed them. The rule behind the calls is not given here.

Assays:
Mus musculus [1] = test: Antidiabetic activity in Mus musculus Kunming (mouse) alloxan-induced diabetic model assessed as reduction of 16 hr fasting plasma glucose level at 10 mg/kg, po qd for 7 days (reference value: 6.11 +/- 0.64 mmol/l); format: functional
Mus musculus [2] = test: Antidiabetic activity in Mus musculus Kunming (mouse) alloxan-induced diabetic model assessed as reduction of 16 hr fasting plasma glucose level at 5 mg/kg, po qd for 7 days (reference value: 6.11 +/- 0.64 mmol/l); format: functional
Mus musculus [3] = test: Hypoglycemic activity in Mus musculus Kunming (mouse) assessed as reduction of 16 hr fasting plasma glucose level at 5 mg/kg, po qd for 7 days by oral glucose tolerance test (reference value: 6.20 +/- 0.63 mmol/l); format: functional
Mus musculus [4] = test: Hypoglycemic activity in Mus musculus Kunming (mouse) assessed as reduction of 16 hr fasting plasma glucose level at 10 mg/kg, po qd for 7 days by oral glucose tolerance test (reference value: 6.20 +/- 0.63 mmol/l); format: functional
Mus musculus [5] = test: Hypoglycemic activity in Mus musculus Kunming (mouse) assessed as reduction of AUC of plasma glucose level at 5 to 10 mg/kg, po qd for 7 days by oral glucose tolerance test; format: functional, organism-based
Mus musculus [6] = test: Hypoglycemic activity in Mus musculus Kunming (mouse) assessed as reduction of 16 hr fasting plasma glucose level at 2.4 mg/kg, po qd for 7 days by oral glucose tolerance test (reference value: 6.20 +/- 0.63 mmol/l); format: functional

Structure (SMILES) | Activity (Mus musculus [1]) | Activity (Mus musculus [2]) | Activity (Mus musculus [3]) | Activity (Mus musculus [4]) | Activity (Mus musculus [5]) | Activity (Mus musculus [6])
CC1=C(/C=C/C(C)=C/C=C/C(C)=C/C=C/C=C(C)/C=C/C=C(C)/C=C/C2=C(C)C(=O)[C@@H](O)CC2(C)C)C(C)(C)C[C@H](O)C1=O [ASTAXANTHIN] | 10.11 mmol/L | 13.03 mmol/L | 6.14 mmol/L | 6.02 mmol/L | Active | 
CN(C)C(=N)NC(=N)N [METFORMIN] | 9.98 mmol/L |  |  |  |  | 
Cc1ccc(S(=O)(=O)NC(=O)NN2CC3CCCC3C2)cc1 (configuration not stated) [GLICLAZIDE] |  |  |  |  |  | 4.69 mmol/L
